Results: US10259810B2, “N-sulfonylated pyrazolo[3,4-b]pyridin-6-carboxamides and method of use” (AbbVie S.à.r.l., priority 2015, dated 2019)

Assays:
ΔF508-CFTR [1] = molecular target: T1, ΔF508-CFTR (Homo sapiens, UniProt P13569, DEL508-508); experiment: CFTR cell surface levels using HRP-tagged ΔF508-CFTR expressing CFBE cells, in the presence of a co-corrector; assay type: cell-based; conditions: HRP-tagged ΔF508-CFTR CFBE cells, in the presence of 3 μM co-corrector; for EC50: read-out: EC50
T1 construct: host or cells: CFBE41o-, doxycycline-inducible
How it was run: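 Chemiluminescent read-out of surface HRP (15 min, dark) after PBS washes. Activity is normalized as 100×(sample−DMSO)/(3 μM co-corrector alone−DMSO).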

ΔF508-CFTR [2] = molecular target: T1, ΔF508-CFTR; experiment: CFTR cell surface levels using HRP-tagged ΔF508-CFTR expressing CFBE cells, intrinsic corrector capacity; assay type: cell-based; parameters: % Activation: concentration or dose not given beside the values; conditions: HRP-tagged ΔF508-CFTR expressing CFBE41o- cells, compound alone (intrinsic corrector capacity), 20 hours at 33° C.; for EC50: read-out: EC50
How it was run: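 Surface ΔF508-CFTR was measured as HRP chemiluminescence from an extracellular-loop-4 tag, expressed as percent activity between DMSO and a […] corrector control.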

T1 sequence (P13569 with tags, fused parts or gaps DEL508-508): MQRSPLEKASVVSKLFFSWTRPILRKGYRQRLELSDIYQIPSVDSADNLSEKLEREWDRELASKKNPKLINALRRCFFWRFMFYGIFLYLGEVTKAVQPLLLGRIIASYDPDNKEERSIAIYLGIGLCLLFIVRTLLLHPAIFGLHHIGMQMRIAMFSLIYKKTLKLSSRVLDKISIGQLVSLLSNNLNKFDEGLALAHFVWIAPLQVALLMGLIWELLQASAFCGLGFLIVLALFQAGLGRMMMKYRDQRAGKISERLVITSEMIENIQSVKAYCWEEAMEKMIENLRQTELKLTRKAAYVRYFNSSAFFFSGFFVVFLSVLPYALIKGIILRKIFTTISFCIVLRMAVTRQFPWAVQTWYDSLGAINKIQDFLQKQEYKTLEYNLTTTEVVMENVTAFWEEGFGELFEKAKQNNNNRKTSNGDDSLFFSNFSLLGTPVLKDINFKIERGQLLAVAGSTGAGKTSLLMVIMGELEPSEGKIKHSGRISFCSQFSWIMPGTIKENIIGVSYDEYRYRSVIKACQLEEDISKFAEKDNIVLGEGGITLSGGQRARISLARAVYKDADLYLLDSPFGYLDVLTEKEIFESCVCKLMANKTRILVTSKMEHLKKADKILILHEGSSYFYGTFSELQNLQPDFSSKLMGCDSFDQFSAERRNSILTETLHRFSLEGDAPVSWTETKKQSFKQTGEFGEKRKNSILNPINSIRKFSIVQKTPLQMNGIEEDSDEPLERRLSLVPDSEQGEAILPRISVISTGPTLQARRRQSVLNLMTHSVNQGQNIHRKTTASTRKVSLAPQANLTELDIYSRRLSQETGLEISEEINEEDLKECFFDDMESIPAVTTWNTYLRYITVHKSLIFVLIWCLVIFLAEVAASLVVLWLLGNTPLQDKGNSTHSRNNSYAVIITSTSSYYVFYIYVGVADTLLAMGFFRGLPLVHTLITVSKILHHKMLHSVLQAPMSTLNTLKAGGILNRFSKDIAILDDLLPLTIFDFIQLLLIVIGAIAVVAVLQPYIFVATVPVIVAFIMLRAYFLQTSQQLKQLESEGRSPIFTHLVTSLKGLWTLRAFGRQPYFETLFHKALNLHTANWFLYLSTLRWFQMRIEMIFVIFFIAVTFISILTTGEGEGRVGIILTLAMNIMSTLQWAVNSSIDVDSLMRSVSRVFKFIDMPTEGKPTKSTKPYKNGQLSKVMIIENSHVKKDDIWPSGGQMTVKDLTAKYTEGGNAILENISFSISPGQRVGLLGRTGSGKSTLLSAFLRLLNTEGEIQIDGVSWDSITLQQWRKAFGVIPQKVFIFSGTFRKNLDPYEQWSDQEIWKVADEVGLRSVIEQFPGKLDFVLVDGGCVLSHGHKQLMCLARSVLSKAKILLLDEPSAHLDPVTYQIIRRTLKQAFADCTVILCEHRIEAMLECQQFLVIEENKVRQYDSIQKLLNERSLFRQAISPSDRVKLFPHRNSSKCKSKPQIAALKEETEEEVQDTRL

| SMILES | % Activation (ΔF508-CFTR [1]) [%] | EC50 (ΔF508-CFTR [1]) [nM] | % Activation (ΔF508-CFTR [2]) [%] | EC50 (ΔF508-CFTR [2]) [nM] |
| --- | --- | --- | --- | --- |
| Cc1nn(-c2ccccc2)c2nc(C(=O)NS(=O)(=O)C3CC3)cc(-c3ccc(N4CCOCC4)cc3)c12 [Compound 4, N-(cyclopropanesulfonyl)-3-methyl-4-[4-(morpholin-4-yl)phenyl]-1-phenyl-1H-pyrazolo[3,4-b]pyridine-6-carboxamide] | 405.8 | 298 | 246.7 | 838 |
| CC(C)c1nn(C2CCCOC2)c2nc(C(=O)NS(C)(=O)=O)cc(-c3ccc(N4CCC(C#N)CC4)nc3)c12 (stereo not drawn) [Compound 145, 4-[6-(4-cyanopiperidin-1-yl)pyridin-3-yl]-N-(methanesulfonyl)-1-(oxan-3-yl)-3-(propan-2-yl)-1H-pyrazolo[3,4-b]pyridine-6-carboxamide] | 271.43 | 636 | 112.03 | 1040 |
| N#CC1CCN(S(=O)(=O)NC(=O)c2cc(N3CCC(N4CCOCC4)CC3)c3c(C4CCC4)nn(-c4ccc(F)cc4)c3n2)CC1 [Compound 505, N-(4-cyanopiperidine-1-sulfonyl)-3-cyclobutyl-1-(4-fluorophenyl)-4-[4-(morpholin-4-yl)piperidin-1-yl]-1H-pyrazolo[3,4-b]pyridine-6-carboxamide] | 389 | 54.1 | 187.5 | 92.6 |
| CS(=O)(=O)NC(=O)c1cc(N2CCC(N3CCC(C#N)C3)CC2)c2c(C3CCC3)nn(-c3ccc(F)cc3)c2n1 (stereo not drawn) [Compound 565, 4-[4-(3-cyanopyrrolidin-1-yl)piperidin-1-yl]-3-cyclobutyl-1-(4-fluorophenyl)-N-(methanesulfonyl)-1H-pyrazolo[3,4-b]pyridine-6-carboxamide] | 637.53 | 69.9 | 373.15 | 182 |
| CC(C)c1nn(-c2ccc(F)cc2F)c2nc(C(=O)NS(C)(=O)=O)cc(-c3ccc(N4CCC(C#N)CC4)cc3)c12 [Compound 141, 4-[4-(4-cyanopiperidin-1-yl)phenyl]-1-(2,4-difluorophenyl)-N-(methanesulfonyl)-3-(propan-2-yl)-1H-pyrazolo[3,4-b]pyridine-6-carboxamide] | 414.63 | 221 | 233.07 | 287 |
| CC(C)c1nn(-c2cccc(C(F)(F)F)c2)c2nc(C(=O)NS(C)(=O)=O)cc(-c3ccc(N(C)C4CCOCC4)nc3)c12 [Compound 133, N-(methanesulfonyl)-4-{6-[methyl(oxan-4-yl)amino]pyridin-3-yl}-3-(propan-2-yl)-1-[3-(trifluoromethyl)phenyl]-1H-pyrazolo[3,4-b]pyridine-6-carboxamide] | 417.7 | 336 | 222.33 | 413 |
| CC(C)c1nn(C2CCCCC2)c2nc(C(=O)NS(C)(=O)=O)cc(-c3ccc(N4CCOC(C)(C)C4)nc3)c12 [Compound 94, 1-cyclohexyl-4-[6-(2,2-dimethylmorpholin-4-yl)pyridin-3-yl]-N-(methanesulfonyl)-3-(propan-2-yl)-1H-pyrazolo[3,4-b]pyridine-6-carboxamide] | 421.53 | 342 | 193.5 | 614 |
| CCS(=O)(=O)NC(=O)c1cc(N2CCCCC2)c2c(C(C)C)nn(-c3cccc(C)c3)c2n1 [Compound 102, N-(ethanesulfonyl)-1-(3-methylphenyl)-4-(piperidin-1-yl)-3-(propan-2-yl)-1H-pyrazolo[3,4-b]pyridine-6-carboxamide] | 458.75 | 537 | 233.9 | 897 |
| CS(=O)(=O)NC(=O)c1cc(N2CCC(N3CCCC(F)C3)CC2)c2c(C3CCC3)nn(-c3ccc(F)cc3)c2n1 (stereo not drawn) [Compound 567, 3-cyclobutyl-4-(3-fluoro[1,4'-bipiperidin]-1'-yl)-1-(4-fluorophenyl)-N-(methanesulfonyl)-1H-pyrazolo[3,4-b]pyridine-6-carboxamide] | 539.8 | 56.3 | 312.2 | 139 |
| Cc1nn(-c2cccc(F)c2)c2nc(C(=O)NS(C)(=O)=O)cc(-c3ccc(N4CCOCC4)cc3)c12 [Compound 67, 1-(3-fluorophenyl)-N-(methanesulfonyl)-3-methyl-4-[4-(morpholin-4-yl)phenyl]-1H-pyrazolo[3,4-b]pyridine-6-carboxamide] | 371.62 | 241 | 181.96 | 362 |
| COCCS(=O)(=O)NC(=O)c1cc(-c2ccc(C(=O)N3CCC(N(C)C)CC3)cc2)c2c(OC(C)C)nn(C3CCCCC3)c2n1 [Compound 545, 1-cyclohexyl-4-{4-[4-(dimethylamino)piperidine-1-carbonyl]phenyl}-N-(2-methoxyethanesulfonyl)-3-[(propan-2-yl)oxy]-1H-pyrazolo[3,4-b]pyridine-6-carboxamide] | 318.7 | 1910 | 112.7 | 3330 |
| CC(=O)Nc1ccc(-c2cc(C(=O)NS(C)(=O)=O)nc3c2c(C(C)C)nn3C2CCCCC2)cc1 [Compound 79, 4-(4-acetamidophenyl)-1-cyclohexyl-N-(methanesulfonyl)-3-(propan-2-yl)-1H-pyrazolo[3,4-b]pyridine-6-carboxamide] | 501.6 | 555 | 280.9 | 1230 |
| CN(C)S(=O)(=O)NC(=O)c1cc(N2CCC(CCN3CCOCC3)CC2)c2c(C3CCC3)nn(C3CCCCC3)c2n1 [Compound 425, 3-cyclobutyl-1-cyclohexyl-N-(dimethylsulfamoyl)-4-{4-[2-(morpholin-4-yl)ethyl]piperidin-1-yl}-1H-pyrazolo[3,4-b]pyridine-6-carboxamide] | 462.85 | 166 | 280.2 | 277 |
| COC[C@H]1CCCN1S(=O)(=O)NC(=O)c1cc(N2CCC(N3CCOCC3)CC2)c2c(C3CCC3)nn(-c3ccc(F)cc3)c2n1 [Compound 577, 3-cyclobutyl-1-(4-fluorophenyl)-N-[(2R)-2-(methoxymethyl)pyrrolidine-1-sulfonyl]-4-[4-(morpholin-4-yl)piperidin-1-yl]-1H-pyrazolo[3,4-b]pyridine-6-carboxamide] | 379.3 | 105 | 187.15 | 257 |
| CCS(=O)(=O)NC(=O)c1cc(N2CCC(CN3CCOCC3)CC2)c2c(C3CCC3)nn(-c3ccc(F)cc3)c2n1 [Compound 494, 3-cyclobutyl-N-(ethanesulfonyl)-1-(4-fluorophenyl)-4-{4-[(morpholin-4-yl)methyl]piperidin-1-yl}-1H-pyrazolo[3,4-b]pyridine-6-carboxamide] | 551.8 | 37.1 | 315.4 | 110 |
| CCOC(=O)N1CCC(NS(=O)(=O)NC(=O)c2cc(N3CCC(CN4CCCC4)CC3)c3c(C4CCC4)nn(-c4ccccc4)c3n2)CC1 [Compound 457, ethyl 4-{[(3-cyclobutyl-1-phenyl-4-{4-[(pyrrolidin-1-yl)methyl]piperidin-1-yl}-1H-pyrazolo[3,4-b]pyridine-6-carbonyl)sulfamoyl]amino}piperidine-1-carboxylate] | 508 | 139 | 272.2 | 128 |
| COCCN(C)C1CCN(c2cc(C(=O)NS(=O)(=O)N(C)C)nc3c2c(C2CCC2)nn3-c2ccc(F)cc2)CC1 [Compound 591, 3-cyclobutyl-N-(dimethylsulfamoyl)-1-(4-fluorophenyl)-4-{4-[(2-methoxyethyl)(methyl)amino]piperidin-1-yl}-1H-pyrazolo[3,4-b]pyridine-6-carboxamide] | 384 | 1590 | 189.1 | 795 |
| CN(C)CCCOc1cc(C(=O)NS(C)(=O)=O)nc2c1c(C1CCC1)nn2-c1ccccc1 [Compound 303, 3-cyclobutyl-4-[3-(dimethylamino)propoxy]-N-(methanesulfonyl)-1-phenyl-1H-pyrazolo[3,4-b]pyridine-6-carboxamide] | 339.95 | 834 | 149.9 | 3330 |
| Cc1nn(-c2cccc(C(F)(F)F)c2)c2nc(C(=O)NS(C)(=O)=O)cc(-c3ccc(N4CCOCC4)nc3)c12 [Compound 57, N-(methanesulfonyl)-3-methyl-4-[6-(morpholin-4-yl)pyridin-3-yl]-1-[3-(trifluoromethyl)phenyl]-1H-pyrazolo[3,4-b]pyridine-6-carboxamide] | 440 | 657 | 219.65 | 1020 |
| CS(=O)(=O)NC(=O)c1cc(N2CC3(CCCCC3)C2)c2c(C3CCC3)nn(-c3ccccc3)c2n1 [Compound 192, 4-(2-azaspiro[3.5]nonan-2-yl)-3-cyclobutyl-N-(methanesulfonyl)-1-phenyl-1H-pyrazolo[3,4-b]pyridine-6-carboxamide] | 254.6 | 866 | 81.49 | 1140 |
| COCC1CCN(c2cc(C(=O)NS(=O)(=O)CCCO)nc3c2c(C2CCC2)nn3-c2ccc(F)cc2)CC1 [Compound 672, 3-cyclobutyl-1-(4-fluorophenyl)-N-(3-hydroxypropane-1-sulfonyl)-4-[4-(methoxymethyl)piperidin-1-yl]-1H-pyrazolo[3,4-b]pyridine-6-carboxamide] | 422.4 | 127 | 362.9 | 331 |
